Measurements: patent US5965126A, “use of mutant alkyltransferases for gene therapy to protect from toxicity of therapeutic alkylating agents” (priority 1996, dated 1999)
Where a chain is given by its changes, count along the chain named.

Key:
[1] = tested on: CHO cells expressing control AGT; assay: Sensitization to killing by 80 μM BCNU, colony forming assay, CHO cells expressing control AGT; assay type: cell-based, Chinese hamster; conditions: with 80 μM BCNU
Protocol: (§1) FIG. 6a and FIG. 6b show the effect of different concentrations of BG (FIG. 6a) and 5-nitroso-BP (FIG. 6b) on killing of cells by BCNU. Cells were treated with BG or 5-nitroso-BP at the concentrations indicated for 2 h and BCNU at 80 μM was added for 2 h. Medium was replaced with fresh medium also containing the AGT inhibitor but not BCNU for the period of 18 h. The cells were then replated as described in materials and methods and colonies were counted 7-8 days later.
(§2) Cytotoxicity assays--Cell killing was determined using a colony forming assay (Pegg, et al., 1995, Biochem. Pharmacol. 50: 1141-1148; Dolan, et al., 1986, Cancer Res. 46: 4500-4504). The cells were plated using 10^6 cells per 25 cm^2 flask and grown for 24 h. After 2 h of incubation with either BG or 5-nitroso-BP, 80 μM BCNU was added for 2 h. The medium was then replaced with fresh medium also containing the AGT inactivator and the cells were left at 37° C. for an additional 16-18 h. The cells were then replated at densities of 100 to 1000 cells per 25 cm^2 flask and grown for 7-8 days until discrete colonies could be stained and counted. The colonies were washed with 0.9% saline and stained with crystal violet and counted.

AGT [2] = molecular target: T1, AGT (Homo sapiens, UniProt P16455); assay: Inactivation of cellular AGT in CHO cells expressing human AGT (CHO-AGT); assay type: cell-based; set-up: expressed in transfected cells; host or cells: Chinese hamster ovary (CHO) cells; conditions: read-out: Inactivation of AGT, ED50 after 4 h exposure
T1 sequence (P16455 1-207): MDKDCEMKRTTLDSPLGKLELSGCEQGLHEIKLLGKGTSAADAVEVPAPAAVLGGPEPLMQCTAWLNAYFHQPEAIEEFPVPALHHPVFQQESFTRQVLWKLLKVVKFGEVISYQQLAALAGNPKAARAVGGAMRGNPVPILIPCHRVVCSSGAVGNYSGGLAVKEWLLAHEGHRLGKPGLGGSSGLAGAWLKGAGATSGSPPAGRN
Protocol: (§3) The cells were then harvested and the AGT activity determined.
(§4) AGT activity assays--Extracts were prepared and AGT activity was determined as described by Dolan et al. (Dolan, et al., 1990, Proc. Natl. Acad. Sci. U.S.A. 87: 5368-5372) by incubation for 30 min at 37° C. with a [^3 H]methylated calf thymus DNA substrate prepared by reaction of DNA with N-[^3 H]methyl-N-nitrosourea (Amersham Inc., Arlington Hts., Ill.). The AGT activity of the cells was then expressed as fmol of O^6 -methylguanine removed per mg of protein present in the cell extracts. Protein was determined by the method of Bradford (Bradford, 1976, Anal. Biochem. 72: 248-254). […] After 4 h exposure, the cells were harvested and washed with PBS. Cell pellets were stored at -80° C. until assayed. Extracts were then prepared and AGT activity determined. The results were expressed as the percentage of the AGT activity present in cultures to which no drug was added.

[3] = tested on: CHO cells expressing mutant AGTs; assay: Effect of AGT inhibitors alone on colony formation; assay type: cell-based, Chinese hamster; conditions: inhibitor alone, 18-20 h, cells expressing G156A
Protocol: FIG. 5 show the effect of different concentrations of BG and 5-nitroso-BP on colony formation. BG was added to CHO cells expressing mutant AGTs P140 (.circle-solid.) and G156A (.quadrature.) and 5-nitroso-BP was added to cells expressing G156A (.box-solid.) for 18-20 h. The cells were then replated as described in materials and methods and colonies were counted 7-8 days later.
as §2

AGT [4] = conditions: HT29 cells; read-out: Inactivation of AGT, ED50 after 4 h exposure; cited from earlier work
human AGT mutant P140A = molecular target: T2, human AGT mutant P140A (Homo sapiens, UniProt P16455, P140A); assay: Inactivation of cellular AGT in CHO cells expressing mutant P140A (CHO-P140A); assay type: cell-based; conditions: for Increase of ED50 with P140A AGT: relative to control AGT in CHO cells, 240 min
T2 construct: expressed in transfected cells; host or cells: Chinese hamster ovary (CHO) cells
T2 sequence (P16455 1-207 P140A): T1 sequence (P16455 1-207) with P140A
Protocol: as §3, §4

human AGT mutant G156A = molecular target: T3, human AGT mutant G156A (Homo sapiens, UniProt P16455, G156A); assay: Inactivation of cellular AGT in CHO cells expressing mutant G156A (CHO-G156A); assay type: cell-based; conditions: for Increase of ED50 with G156A AGT: relative to control AGT in CHO cells, 240 min
T3 construct: expressed in transfected cells; host or cells: Chinese hamster ovary (CHO) cells
T3 sequence (P16455 1-207 G156A): T1 sequence (P16455 1-207) with G156A
Protocol: as §3, §4

[5] = tested on: CHO cells expressing G156A AGT; assay: Sensitization to killing by 80 μM BCNU, colony forming assay, CHO cells expressing G156A AGT; assay type: cell-based, Chinese hamster
Protocol: as §1, §2

[6] = tested on: CHO cells expressing P140A AGT; assay: Sensitization to killing by 80 μM BCNU, colony forming assay, CHO cells expressing P140A AGT; assay type: cell-based, Chinese hamster; conditions: with 80 μM BCNU
Protocol: as §1, §2

[7] = tested on: ΔMGMT transduced K562 cells; assay: Clonogenic survival in methylcellulose after BG and BCNU, ΔMGMT transduced K562 cells; assay type: cell-based, human
[8] = tested on: wtMGMT transduced K562 cells; assay: Clonogenic survival in methylcellulose after BG and BCNU, wtMGMT transduced K562 cells; assay type: cell-based, human
Control CHO cells = assay: Colony forming assay, killing of control CHO cells by BCNU; assay type: cell-based, Chinese hamster; conditions: 2 h, after 80 μM BCNU, read-out: survival
Protocol: (§5) Control CHO cells (.tangle-solidup.) and CHO cells expressing human AGT (.smallcircle.) or its mutants P140A (.circle-solid.) and G156A (.quadrature.) were treated with BCNU at the concentration shown for 2 h. The medium was then replaced. After 16-18 h, the cells were replated as described in Example Section 6 and colonies were counted 7-8 days later.
as §2

untransduced K562 cells = assay: Clonogenic survival in methylcellulose after BG and BCNU, untransduced K562 cells; assay type: cell-based; conditions: Homo sapiens
[9] = tested on: lac Z transduced hematopoietic progenitor cells; assay: Clonogenic progenitor survival after BG and BCNU, lac Z transduced CD34+ cells; conditions: 10 μM BG and 10 μM BCNU, lac Z transduced progenitors
Protocol: (§6) CD34^+ Transduction--Peripheral blood mononuclear cells were obtained by apheresis from patients treated with cyclophosphamide and G-CSF. CD34^+ progenitors were isolated using the Ceprate SC Stem Cell Concentrator (Cell Pro, Bothell, Wash.) according to manufacturer's directions. Briefly, cells were washed and incubated with biotinylated anti-CD34 antibody, passed over an avidin column and the bound fraction eluted by gentle agitation. […] At 48 hours, half of the media was removed, cells were pelleted and resuspended in fresh, supplemented media, and non-adherent cells were collected at 96 hours.
(§7) BCNU was dissolved in 100% ethanol and diluted to 10 mM with serum free media and immediately added to the cells. Following a two hour incubation at 37° C., cells were incubated in methylcellulose (Stem Cell Technologies, Inc.) containing either SCF, IL3, hemin, erythropoietin, GM-CSF (for CD34^+ cells) or GM-CSF and IL-3 (for K562 cells) in triplicate. […] After incubation for 7-10 days at 37° C. colonies were enumerated and survival was analyzed at each BCNU dose.

[10] = tested on: CHO cells expressing control or mutant AGT; assay: Colony forming assay, killing by BCNU of transfected CHO cells expressing control or mutant AGT; assay type: cell-based, Chinese hamster; conditions: up to 100 μM BCNU, highest concentration tested
Protocol: as §5, §2

[11] = tested on: ΔMGMT transduced CD34^+ cells; assay: Clonogenic progenitor survival after BG and BCNU, ΔMGMT transduced CD34+ cells
Protocol: as §6, §7

ΔAGT (G156A) = molecular target: T4, ΔAGT (G156A) (Homo sapiens, UniProt P16455, G156A); assay: cell-based; conditions: K562, read-out: AGT activity retained
T4 sequence (P16455 1-207 G156A): T1 sequence (P16455 1-207) with G156A
Protocol: (§9) AGT Assay--AGT activity was measured as [^3 H]-methyl groups removed from [^3 H] O^6 -methylguanine present in [^3 H]-methylnitrosourea treated alkylated calf thymus DNA. The alkylated [^3 H-methyl] O^6 methylguanine and N^7 methylguanine bases were separated by HPLC and quantified by liquid scintillation. AGT activity was expressed as fmol O^6 mG removed/μg DNA or fmol O^6 removed/mgprotein.

wtAGT = molecular target: T5, wtAGT (Homo sapiens, UniProt P16455); assay: BG inactivation of AGT in wtMGMT transduced K562 cells; conditions: 5 μM BG
T5 sequence (P16455 1-207): T1 sequence (P16455 1-207)
Protocol: as §9

[12] = Solubility in aqueous media; assay type: physicochemical
Text: (§8) Another embodiment of the present invention relates to the use of a mutant AGT protein, preferably a human AGT protein, resistant to inactivation by a compound shown to inactivate or at least substantially inactivate the DNA repair function of wild type AGT which include, but again are in no way limited to the O^6 -substituted guanosine and 2' deoxyguanisine compounds disclosed in U.S. Pat. No. 5,352,669 issued to Moschel, et al. on Oct. 4, 1994. […] Furthermore, escalation of the dBG dose was not restricted by solubility as with BG. Therefore, this class of compounds, as exemplified by dBG, will be useful in practicing the present invention whereby the skilled artisan identifies a related AGT mutant which imparts resistance to addition of dBG both in vitro and in vivo.

xenograft = assay: In vivo xenograft system, potentiation of BCNU
Text: as §8

AGT [13] = molecular target: T1, AGT; assay: In vitro screen of potential AGT-inhibiting BG analogs; conditions: versus BG and BGs modified at the benzyl ring
Text: as §8

[14] = Homo sapiens, K562, read-out: BCNU IC50, clonogenic survival
[15] = Homo sapiens, K562, read-out: BCNU IC90, clonogenic survival

In the case of Nc1nc(N)c(N=O)c(OCc2ccccc2)n1 [5-nitroso-BP, 2,4-diamino-6benzyloxy-5-nitrosopyrimidine], the “concentration required to reduce colony formation to <1 per 1000 cells plated” value [1] is reported as “about 5 μM”, the IC50 (AGT [2]) is reported as 0.05 µM and the “concentrations reducing colony formation” value [3] is reported as “above 30 μM”. The IC50 (AGT [4]) was 0.02 µM, the IC50 (human AGT mutant P140A; CHO-P140A cells, read-out: Inactivation of AGT, ED50 after 4 h exposure) was 1.25 µM and the “Increase of ED50 with P140A AGT” value (human AGT mutant P140A) was 25 fold. The IC50 (human AGT mutant G156A; CHO-G156A cells, read-out: Inactivation of AGT, ED50 after 4 h exposure) was 5 µM, the “Increase of ED50 with G156A AGT” value (human AGT mutant G156A) was 100 fold and the “concentration required to sensitize cells to BCNU” value ([5]; with 80 μM BCNU) was over 40 µM. The “concentration needed to reduce colony formation to <1 per 1000 cells plated” value [6] was “More than 25 μM”.
O=NN(CCCl)C(=O)NCCCl [BCNU, N,N'-bis(2-cholorethyl)-N-nitrosourea] showed a clonogenic survival ([7]; 30 μM BCNU & BG, ΔMGMT K562 cells) of 20%, an IC50 [7, 14] of 11.3 µM and an IC90 [7, 15] of over 30 µM. The clonogenic survival ([8]; 30 μM BCNU & BG, wtMGMT K562 cells) was under 1%, the IC50 [8, 14] was 4 µM and the IC90 [8, 15] was 16 µM. For the same molecule, the viability at 80 µM (Control CHO cells) was under 0.1%, the IC50 (untransduced K562 cells; K562, read-out: BCNU IC50, clonogenic survival) was 1.3 µM and the IC90 (untransduced K562 cells; K562, read-out: BCNU IC90, clonogenic survival) was 5 µM. For the same molecule, the cells killed [9] was “greater than 99%”, the “killing by BCNU” value [10] was “completely resistant” and the cells resistant ([11]; 10 μM BG and 10 μM BCNU, ΔMGMT transduced CD34+) was “approximately 25%”. The “colonies very resistant to BG & BCNU” value ([11]; ΔMGMT transduced CD34+ derived colonies) was “Over 30%”.
For Nc1nc(OCc2ccccc2)c2[nH]cnc2n1 [BG, O^6 -benzylguanine], the “concentration required to reduce colony formation to <1 per 1000 cells plated” value [1] is listed as 50 µM, the activity at 5 µM (ΔAGT (G156A)) is listed as over 90% and the IC50 (AGT [4]) is listed as 0.05 µM. The “Increase of ED50 with P140A AGT” value (human AGT mutant P140A) was 30 fold, the “Increase of ED50 with G156A AGT” value (human AGT mutant G156A) was 60 fold and the “survival under combined BG and BCNU” value ([5]; 350 μM BG with 80 μM BCNU) was “substantial survival”. For the same molecule, the “concentration needed to reduce colony formation to <1 per 1000 cells plated” value [6] was 200 µM and the AGT activity (wtAGT) was “undetectable”.
In the case of Nc1nc(OCc2ccccc2)c2ncn([C@H]3C[C@H](O)[C@@H](CO)O3)c2n1 [dBG], the “solubility in aqueous media compared to other BGs” value [12] is reported as “superior solubility”, the “BCNU-potentiating effects compared with BG” value (xenograft) is reported as “quite comparable” and the “potency relative to BG (less potent)” value (AGT [13]) is reported as 10 fold.
